From patent US8969247B2, “Method for controlling aquatic weeds” (BASF SE, priority 2005, dated 2015)

Columns and labels:
Format in all cases: in vivo
[1] = system: Hydrilla verticillata; assay: Experiment 3: greenhouse static exposure of hydrilla to mesotrione; settings: 500 ppb
Procedure: (§1) Greenhouse and shade house tests were initiated to evaluate the effects of HPPD-inhibitors, exemplary topramezone and mesotrione, for the control of aquatic weeds, exemplary for the control of Hydrilla verticillata.
(§2) To begin the experiment, containers were filled and maintained with a volume of 4000 ml of distilled water at room temperature (24° C.). To each container, an established hydrilla plant (potted in sand mixture) was transferred into the water column. Hydrilla plants were selected for uniformity and length of shoot growth (approx 15 cm). Plants were allowed to equilibrate in the columns for 24 hrs prior to herbicide treatment. Experimental treatments included an untreated control and mesotrione at 500 ppb. Treatments were applied to water columns by the use of a pipette. Amount of herbicide applied was based on the total volume of the containers (4000 ml). After initial herbicide treatment, the water columns were gently stirred to ensure uniform distribution. Treatments were arranged as a complete random design with 3 replications. Each container was considered the experimental unit. Greenhouse conditions were maintained at 24/18° C. (day/night) cycle for the duration of the experiment. Natural day length was supplemented with halogen lighting to provide a 14 hr photoperiod. Water level in the containers was periodically checked and maintained at the 4000 ml level for the duration of the study. At the end of four weeks, hydrilla shoot length and fresh weights were recorded.

[2] = system: Hydrilla verticillata; assay: Experiment 2: shade house (outdoor) static exposure of hydrilla to topramezone; settings: for Hydrilla Shoot Weight: 8 weeks after treatment, dry weight biomass, control 1.5 g, LSD (0.05) 0.2
Procedure: as §1
Experiment 2 was conducted under shade house (outdoor) conditions. Four 4-liter pots were filled with 15 to 20 cm of sand medium plus amended fertilizer (15 grams Osmocote®^1 19-6-12). Four actively growing Hydrilla verticillata tips (10 to 15 cm in length) were planted 1 to 2 cm deep in medium. The four 4-liter pots were placed in 100-liter containers and covered fully with tap water. Plants were treated 15 days after planting once plant elongation and active growth were observed. There were three 100-liter containers per water treatment (three replications) with four sub-sample 4-liter pots and four Hydrilla verticillata plants per 4-liter pot. Treatments were arranged as a complete random design. ^1 Osmocote®—manufactured by: Scotts-Sierra Horticutural Products Company, Marysville, Ohio 43401 U.S.A
Water treatments of 50 ppb, 75 ppb, 100 ppb, 200 ppb, and 400 ppb of topramezone were installed. Plants were harvested 8 weeks after initial water treatment to determine dry weight biomass reductions compared to the untreated check.

[3] = system: Hydrilla verticillata; assay: Experiment 1: greenhouse static exposure of hydrilla to topramezone; settings: 500 ppb
Procedure: as §1
as §2, with “topramezone” for “mesotrione”

[4] = approximately 14 days after treatment

| SMILES | Visual observations [1, 4] | Reduction in shoot biomass (Student's t-Test) ([1]; end of the study (4 weeks)) | Reduction in shoot length (Student's t-Test) ([1]; end of the study (4 weeks)) | Hydrilla Fresh Weight ([1]; static exposure, 4 weeks after treatment, control 4.4 g) | Hydrilla Shoot Length ([1]; static exposure, 4 weeks after treatment, control 24 cm) | Hydrilla Shoot Weight ([2]; 50 ppb) | Reduction in shoot biomass vs. the untreated control ([2]; 50 to 400 ppb, end of the study (8 weeks)) | Hydrilla Shoot Weight ([2]; 75 ppb) | Hydrilla Shoot Weight ([2]; 100 ppb) | Hydrilla Shoot Weight ([2]; 200 ppb) | Hydrilla Shoot Weight ([2]; 400 ppb) | Visual observations [3, 4] | Reduction in shoot length and biomass (Student's t-Test) ([3]; end of the study (4 weeks)) | Effect on hydrilla tissue vs. the untreated control ([3]; over the course of the study) | Hydrilla Fresh Weight ([3]; static exposure, 4 weeks after treatment, control 17 g) | Hydrilla Shoot Length ([3]; static exposure, 4 weeks after treatment, control 37 cm) |
| --- | --- | --- | --- | --- | --- | --- | --- | --- | --- | --- | --- | --- | --- | --- | --- | --- |
| CS(=O)(=O)c1ccc(C(=O)C2C(=O)CCCC2=O)c([N+](=O)[O-])c1 [mesotrione] | significant bleaching and reddening in the new grown tips | significant reduction in shoot biomass | did not observe a significant reduction in shoot length | 1.4 grams | 16 cm |  |  |  |  |  |  |  |  |  |  |  |
| Cc1c(C(=O)c2cnn(C)c2O)ccc(S(C)(=O)=O)c1C1=NOCC1 [topramezone] |  |  |  |  |  | 1.3 grams | significant reductions in shoot biomass | 0.8 grams | 0.8 grams | 0.7 grams | 0.6 grams | significant bleaching and reddening in the new grown tips | significant reductions in both shoot length and biomass | stunting and dieback of hydrilla tissue | 0.3 grams | 6 cm |
